The NIST ThermoML archive (doi:10.1021/je050514j)

Columns and labels:
[1] = xn = mol fraction of the nth substance listed; details: 313.15 K, Fluid (supercritical or subcritical phases), x1 = 1
[2] = refractive index (Na D-line) (dimensionless); details: 298.15 K; 101.33 kPa; Liquid; Standard Abbe refractometry

O=C=O [carbon dioxide] + CCOC(C)=O
[1]
Details | mass density [kg/m3]
1000 kPa | 17.8
2000 kPa | 37.3
3000 kPa | 58.6
4000 kPa | 83.4
5000 kPa | 112.5
6000 kPa | 148.7
7000 kPa | 197.5
8000 kPa | 276.7
9000 kPa | 482.6
10000 kPa | 627.3

O=C=O [carbon dioxide]
313.15 K, Fluid (supercritical or subcritical phases)
Details | mass density [kg/m3]
1000 kPa | 17.8
2000 kPa | 37.3
3000 kPa | 58.6
4000 kPa | 83.4
5000 kPa | 112.5
6000 kPa | 148.7
7000 kPa | 197.5
8000 kPa | 276.7
9000 kPa | 482.6
10000 kPa | 627.3

CCOC(C)=O [ethyl acetate]
Details | refractive index
[2] | 1.3702

Details | mass density [kg/m3]
298.15 K, 101.33 kPa, Liquid | 894.4
313.15 K, 1000 kPa, Fluid (supercritical or subcritical phases) | 876.9
313.15 K, 2000 kPa, Fluid (supercritical or subcritical phases) | 878
313.15 K, 3000 kPa, Fluid (supercritical or subcritical phases) | 878.9
313.15 K, 4000 kPa, Fluid (supercritical or subcritical phases) | 880
313.15 K, 5000 kPa, Fluid (supercritical or subcritical phases) | 881
313.15 K, 6000 kPa, Fluid (supercritical or subcritical phases) | 881.9
313.15 K, 7000 kPa, Fluid (supercritical or subcritical phases) | 882.9
313.15 K, 8000 kPa, Fluid (supercritical or subcritical phases) | 883.9
313.15 K, 9000 kPa, Fluid (supercritical or subcritical phases) | 884.9
313.15 K, 10000 kPa, Fluid (supercritical or subcritical phases) | 885.9

Details | Normal boiling temperature [°C]
Liquid, ebulliometry | 77.06
